The source of these data is patent US5770380A (priority 1996, dated 1998).

In the assay the target is melittin (Apis mellifera, UniProt P01501). In words: biochemical. Type of assay: binding, bee.

Structures are written as SMILES.

By Kd is commonly meant the constant that tells how readily two partners part at equilibrium. Read a low Kd as a tighter complex.

Chain of melittin (P01501 44-69 limits assumed): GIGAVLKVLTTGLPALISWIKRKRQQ

For the compound `CCCCOc1c2cc(C(=O)Nc3cc4cc(c3)C(=O)NCC(=O)N[C@@H](CC(=O)O)C(=O)NCC(=O)N[C@@H](CC(=O)O)C(=O)NC4)cc1Cc1cc(C(=O)Nc3cc4cc(c3)C(=O)NCC(=O)N[C@@H](CC(=O)O)C(=O)NCC(=O)N[C@@H](CC(=O)O)C(=O)NC4)cc(c1OCCCC)Cc1cc(C(=O)Nc3cc4cc(c3)C(=O)NCC(=O)N[C@@H](CC(=O)O)C(=O)NCC(=O)N[C@@H](CC(=O)O)C(=O)NC4)cc(c1OCCCC)Cc1cc(C(=O)Nc3cc4cc(c3)C(=O)NCC(=O)N[C@@H](CC(=O)O)C(=O)NCC(=O)N[C@@H](CC(=O)O)C(=O)NC4)cc(c1OCCCC)C2` [compound 1, Calix[4]arenetetracyclicpeptide1], the equilibrium dissociation constant (Kd) was found to be 1000 nM.
